Test system: CHO-hGLP-1R cells
Test: Cell viability assay (resazurin)
Type: cell-based, Chinese hamster
Settings: 48 h treatment, then 5 h resazurin dye, fluorescence 590 nm, concentrations up to 1000-fold above the EC50, 3 independent experiments
Procedure: CHO-hGLP-1R cells described above were plated at 10 000 cells per well in 96-well black clear-bottom poly-d-lysine-coated microtiter plates (Corning, USA). Growth medium comprised DMEM supplemented with 10% FBS (Sigma-Aldrich). […] Fluorescence emission was measured at 590 nm (560 nm excitation) using an Envision plate reader (Perkin Elmer, USA).

CN[C@@H]1C[C@H]2O[C@@](C)([C@@H]1OC)n1c3ccccc3c3c4c(c5c6ccccc6n2c5c31)C(=O)NC4 [staurosporine]
cytotoxicity (cell viability): expected effect on loss of cell viability

— publication PMC10406450 (Frontiers in Endocrinology, 2023)
